# Data as given in US20090325862A1, “Histone Deacetylase Inhibitors for the Treatment of Neurodegeneration” (priority 2006, published 2009).
# Read-outs that look alike come from different tables or passages of the source.
# Tests used:
# [1] = biological target: T1, recombinant human HDAC1 enzyme (Homo sapiens, UniProt Q13547); assay: HDAC1 assay (Fluor-de-Lys fluorescence); assay type: biochemical; details: HDAC Class I; read-out: IC50 Inhibition, HDAC1
# T1 construct: made in house; host or cells: mammalian cells
# Protocol: (§1) The final concentration in the assay is 20 μM.
# The HDAC1 enzyme is diluted in assay buffer prior to each use from a fresh aliquot of enzyme.
# (§2) The final concentration in the assay is 1-2 nM.
# [2] = biological target: T2, recombinant human HDAC3 enzyme (HDAC3(DAD) enzyme complex) (Homo sapiens, UniProt O15379); assay: HDAC3 assay (Fluor-de-Lys fluorescence); assay type: biochemical; details: HDAC Class I; read-out: IC50 Inhibition, HDAC3
# T2 construct: made in house; host or cells: mammalian cells
# Protocol: as §1, §2
# human HDAC8 enzyme = biological target: T3, human HDAC8 enzyme (Homo sapiens, UniProt Q9BY41); assay: HDAC8 assay (Fluor-de-Lys-HDAC8 fluorescence); assay type: biochemical
# T3 construct: full length (starting from amino acid 1 to 377+ linker IEGRGS+6 His); made in house; host or cells: E. coli BL21 codon plus
# T3 sequence (Q9BY41 1-377): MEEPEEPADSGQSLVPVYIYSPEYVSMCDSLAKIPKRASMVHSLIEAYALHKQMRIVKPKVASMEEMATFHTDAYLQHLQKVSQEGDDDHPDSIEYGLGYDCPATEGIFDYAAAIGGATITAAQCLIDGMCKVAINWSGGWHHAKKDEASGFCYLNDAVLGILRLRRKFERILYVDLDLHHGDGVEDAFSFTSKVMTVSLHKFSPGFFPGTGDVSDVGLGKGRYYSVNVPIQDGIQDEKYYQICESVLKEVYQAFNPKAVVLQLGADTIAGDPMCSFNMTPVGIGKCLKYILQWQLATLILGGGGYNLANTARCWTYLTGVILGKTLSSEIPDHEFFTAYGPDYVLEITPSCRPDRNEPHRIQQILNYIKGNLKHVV
# Protocol: The HDAC8 assay is used to measure inhibitory activity of compounds against the human HDAC8 enzyme. The assay may be performed in 96 well or 384 well microtiter plates by pre-incubating serial dilutions of compounds with a fixed concentration of HDAC8 enzyme and then adding a diacetylated peptide-containing substrate/developer that fluoresces upon deacetylation. The deacetylase reaction is performed at 37° C. for 60 min and stopped by addition of the developer solution.
# Reagents of the HDAC Fluorescent Activity Assay are purchased from BioMol Research Laboratories (Plymouth Meeting, Pa.), and include the Fluor-de-Lys™-HDAC8 Substrate/DeveloperII System. The reagents include the fluorescent substrate as a 5 mM stock solution, the and the DeveloperII Concentrate.
# TSA is provided as a 10 mM stock solution in 100% DMSO.
# The final concentration in the assay is 70 μM.
# Test compounds are prepared as a 10×5% DMSO solution in distilled water. The final DMSO concentration in the reaction is 0.5%.
# The experiment is performed in a 96-well microplate (Matrix Screenmates white), 50 ul volume, according to the following steps:
# 1) Add 5 ul of DMSO/compound solution
# 2) Add 40 ul of HDAC8 enzyme in assay buffer
# 4) Start the reaction by adding 5 ul of the 1 mM Substrate Solution
# 5) Incubate 1 h at 37° C. […]
# 8) Measure the fluorescence at Ex.360 nM and Em.460 nM […]
# HDAC4 = HDAC4 (Homo sapiens, UniProt P56524); assay: cell-free, isoform selective HDAC enzyme assay, HDAC4; assay type: biochemical; details: HDAC Class IIa; read-out: IC50 Inhibition, HDAC4
# HDAC6 = biological target: T4, HDAC6 (Homo sapiens, UniProt Q9UBN7); assay: cell-free, isoform selective HDAC enzyme assay, HDAC6; assay type: biochemical
# T4 sequence (Q9UBN7 1-1215): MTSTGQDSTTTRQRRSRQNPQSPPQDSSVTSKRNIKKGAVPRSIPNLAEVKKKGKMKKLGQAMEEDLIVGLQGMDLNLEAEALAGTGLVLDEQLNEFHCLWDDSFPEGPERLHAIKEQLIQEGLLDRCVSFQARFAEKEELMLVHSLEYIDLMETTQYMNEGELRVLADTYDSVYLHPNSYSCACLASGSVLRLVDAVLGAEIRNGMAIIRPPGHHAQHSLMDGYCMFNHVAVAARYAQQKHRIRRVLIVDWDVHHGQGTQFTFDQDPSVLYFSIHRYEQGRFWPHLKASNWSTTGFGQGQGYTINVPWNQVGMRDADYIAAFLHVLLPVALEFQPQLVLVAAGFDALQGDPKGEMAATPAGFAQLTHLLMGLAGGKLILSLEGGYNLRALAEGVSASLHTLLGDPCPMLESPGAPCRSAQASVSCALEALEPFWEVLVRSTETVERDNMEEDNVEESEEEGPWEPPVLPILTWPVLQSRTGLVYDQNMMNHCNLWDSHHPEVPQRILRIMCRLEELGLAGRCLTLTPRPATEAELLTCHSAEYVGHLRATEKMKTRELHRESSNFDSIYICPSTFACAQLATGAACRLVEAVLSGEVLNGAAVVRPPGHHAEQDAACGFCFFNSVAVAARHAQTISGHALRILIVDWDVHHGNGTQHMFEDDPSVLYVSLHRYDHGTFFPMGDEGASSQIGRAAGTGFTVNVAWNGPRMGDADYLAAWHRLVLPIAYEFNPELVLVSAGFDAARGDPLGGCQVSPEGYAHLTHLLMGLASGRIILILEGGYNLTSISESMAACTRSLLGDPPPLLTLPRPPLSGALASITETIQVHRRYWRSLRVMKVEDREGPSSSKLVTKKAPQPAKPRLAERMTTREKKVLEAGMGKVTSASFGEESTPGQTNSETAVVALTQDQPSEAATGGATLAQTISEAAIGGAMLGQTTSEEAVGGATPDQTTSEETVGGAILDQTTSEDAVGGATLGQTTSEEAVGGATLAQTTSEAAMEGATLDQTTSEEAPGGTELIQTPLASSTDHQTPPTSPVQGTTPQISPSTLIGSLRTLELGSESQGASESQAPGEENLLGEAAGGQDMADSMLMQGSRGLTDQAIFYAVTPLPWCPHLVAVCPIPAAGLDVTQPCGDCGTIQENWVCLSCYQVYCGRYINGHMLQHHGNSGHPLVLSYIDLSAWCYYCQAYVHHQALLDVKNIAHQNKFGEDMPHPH
# SIRT1 = biological target: T5, SIRT1 (Homo sapiens, UniProt Q96EB6); assay: cell-free, isoform selective HDAC enzyme assay, SIRT1; assay type: biochemical; details: HDAC Class III; read-out: IC50 Inhibition, SIRT1
# T5 sequence (Q96EB6 1-747): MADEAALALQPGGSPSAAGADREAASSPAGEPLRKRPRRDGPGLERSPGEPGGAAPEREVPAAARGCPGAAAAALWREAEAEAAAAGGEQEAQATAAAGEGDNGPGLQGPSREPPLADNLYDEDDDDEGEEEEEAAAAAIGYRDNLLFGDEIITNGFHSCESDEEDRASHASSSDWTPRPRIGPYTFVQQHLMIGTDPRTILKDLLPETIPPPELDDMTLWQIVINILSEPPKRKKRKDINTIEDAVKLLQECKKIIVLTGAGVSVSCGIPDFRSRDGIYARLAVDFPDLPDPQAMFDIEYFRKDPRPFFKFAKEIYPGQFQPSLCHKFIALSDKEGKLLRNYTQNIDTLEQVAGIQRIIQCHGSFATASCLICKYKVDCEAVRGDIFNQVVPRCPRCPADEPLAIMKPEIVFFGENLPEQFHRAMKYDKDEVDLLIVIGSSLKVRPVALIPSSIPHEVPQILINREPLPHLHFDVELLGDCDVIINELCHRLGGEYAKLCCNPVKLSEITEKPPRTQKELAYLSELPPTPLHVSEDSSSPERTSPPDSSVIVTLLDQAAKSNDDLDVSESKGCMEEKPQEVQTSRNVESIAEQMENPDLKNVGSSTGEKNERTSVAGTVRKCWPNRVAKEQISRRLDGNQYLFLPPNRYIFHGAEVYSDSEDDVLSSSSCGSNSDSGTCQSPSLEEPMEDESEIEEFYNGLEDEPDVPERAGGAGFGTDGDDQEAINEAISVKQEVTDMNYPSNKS
# Protocol: The following pharmaceutically active compounds, all of which are taught in the prior art, were assessed for the inhibition of various HDAC subtypes the preceding cell-free, isoform selective HDAC enzyme assays: […]
# [3] = system: acetylated histones in the brain; details: see WO2003083067; cited from earlier work
# Chain of HDAC4 (P56524 whole entry, species assumed, canonical isoform): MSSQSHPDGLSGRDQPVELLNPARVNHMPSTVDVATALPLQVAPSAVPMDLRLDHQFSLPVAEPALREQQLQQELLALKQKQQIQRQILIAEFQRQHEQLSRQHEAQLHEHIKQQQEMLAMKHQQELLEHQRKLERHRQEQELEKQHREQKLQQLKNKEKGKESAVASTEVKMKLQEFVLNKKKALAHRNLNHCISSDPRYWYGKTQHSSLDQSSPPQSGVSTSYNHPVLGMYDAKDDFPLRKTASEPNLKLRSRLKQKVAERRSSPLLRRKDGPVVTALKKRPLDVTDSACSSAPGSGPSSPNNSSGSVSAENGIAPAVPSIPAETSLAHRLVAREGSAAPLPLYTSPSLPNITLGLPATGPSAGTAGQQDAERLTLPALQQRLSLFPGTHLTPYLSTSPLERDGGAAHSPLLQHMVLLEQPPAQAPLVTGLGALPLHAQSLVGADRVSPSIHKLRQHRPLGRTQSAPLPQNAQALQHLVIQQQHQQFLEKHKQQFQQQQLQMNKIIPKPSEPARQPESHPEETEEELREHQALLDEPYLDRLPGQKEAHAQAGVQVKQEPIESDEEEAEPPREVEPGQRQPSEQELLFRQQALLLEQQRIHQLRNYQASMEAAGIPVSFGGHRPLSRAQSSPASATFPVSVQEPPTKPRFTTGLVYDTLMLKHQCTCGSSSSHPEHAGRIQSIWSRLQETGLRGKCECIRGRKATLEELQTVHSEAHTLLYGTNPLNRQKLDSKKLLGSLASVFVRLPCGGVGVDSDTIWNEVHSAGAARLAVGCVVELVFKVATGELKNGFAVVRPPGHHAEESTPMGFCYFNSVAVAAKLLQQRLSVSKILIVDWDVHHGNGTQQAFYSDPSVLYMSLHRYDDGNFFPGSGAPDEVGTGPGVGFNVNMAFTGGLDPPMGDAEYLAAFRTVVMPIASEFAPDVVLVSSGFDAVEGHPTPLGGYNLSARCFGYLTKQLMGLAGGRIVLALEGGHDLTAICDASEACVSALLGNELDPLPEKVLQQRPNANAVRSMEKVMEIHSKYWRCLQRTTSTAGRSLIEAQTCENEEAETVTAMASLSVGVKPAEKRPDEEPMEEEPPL
# T1 sequence (Q13547 whole entry): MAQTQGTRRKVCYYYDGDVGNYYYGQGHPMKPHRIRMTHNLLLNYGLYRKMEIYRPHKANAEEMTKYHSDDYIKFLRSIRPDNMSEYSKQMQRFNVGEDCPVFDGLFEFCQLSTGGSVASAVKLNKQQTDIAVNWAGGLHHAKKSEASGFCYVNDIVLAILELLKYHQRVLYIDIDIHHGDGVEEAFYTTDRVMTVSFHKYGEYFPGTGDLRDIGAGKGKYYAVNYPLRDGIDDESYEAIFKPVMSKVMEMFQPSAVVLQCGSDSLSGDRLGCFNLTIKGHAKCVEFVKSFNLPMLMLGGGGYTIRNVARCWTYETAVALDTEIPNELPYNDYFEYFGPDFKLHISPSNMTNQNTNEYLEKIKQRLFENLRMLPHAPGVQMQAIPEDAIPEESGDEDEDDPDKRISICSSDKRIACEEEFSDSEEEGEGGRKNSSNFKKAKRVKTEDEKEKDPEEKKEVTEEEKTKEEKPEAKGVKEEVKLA
# T2 sequence (O15379 whole entry): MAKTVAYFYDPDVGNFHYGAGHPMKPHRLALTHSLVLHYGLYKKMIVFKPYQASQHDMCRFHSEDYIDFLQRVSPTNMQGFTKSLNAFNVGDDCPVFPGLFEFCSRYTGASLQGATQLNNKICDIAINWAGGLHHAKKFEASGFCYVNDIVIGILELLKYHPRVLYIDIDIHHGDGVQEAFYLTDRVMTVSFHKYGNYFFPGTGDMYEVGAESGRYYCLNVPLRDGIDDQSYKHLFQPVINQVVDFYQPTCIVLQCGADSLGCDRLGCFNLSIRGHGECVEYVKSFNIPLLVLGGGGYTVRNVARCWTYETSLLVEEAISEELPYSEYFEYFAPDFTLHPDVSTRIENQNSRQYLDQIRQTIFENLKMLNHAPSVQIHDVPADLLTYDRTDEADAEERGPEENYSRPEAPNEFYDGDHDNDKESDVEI
# T2 sequence (Q9Y618 389-480 partner limits assumed): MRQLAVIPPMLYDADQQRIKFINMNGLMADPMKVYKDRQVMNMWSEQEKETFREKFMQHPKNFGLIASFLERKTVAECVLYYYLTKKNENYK
SMILES,IC50 [1] [µM],IC50 [2] [µM],potency at HDAC 8 relative to HDAC1 and HDAC3 (human HDAC8 enzyme; HDAC 8 potency similar to HDAC1 and HDAC3) [fold],"IC50 (human HDAC8 enzyme; HDAC Class I, read-out: IC50 Inhibition, HDAC8) [µM]",IC50 (HDAC4) [µM],"IC50 (HDAC6; HDAC Class IIb, read-out: IC50 Inhibition, HDAC6) [µM]",IC50 (SIRT1) [µM],accumulation of acetylated histones in the brain [3],crossing of the blood-brain barrier [3],IC50 (HDAC6) [µM]
"CCCCCC[C@@H](CCC)C(=O)O [Arundic acid, (2R)-2-propyloctanoic acid]",10,36,≤ 5,31,> 50,> 50,> 50,–,–,–
"O=C(CCCCCCC(=O)Nc1ccccc1)NO [SAHA, suberoylanilide hydroxamic acid]",–,–,–,–,–,–,–,cause accumulation of acetylated histones in the brain,cross the blood-brain barrier,–
"CCCC(CCC)C(=O)O [Valproic acid, 2-propylpentanoic acid]",–,–,–,–,> 25,–,–,–,–,> 5000
